Experimental data as given in patent publication US20240400555A1 (Initial Therapeutics, Inc., priority 2023, published 2024).

System: HCT-116 Firefly-luciferase reporter cells
Test: Cellular c-MYC Reporter Assay
Format: cell-based
Settings: Homo sapiens, HCT-116, 24 h, read-out: pIC50 (converted)
How it was run: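 Compound exposure lasted 24 h at 37 °C, 5% CO2, in complete McCoy's 5A medium containing 0.2% DMSO, beginning 4–6 h post-seeding (5e4 cells/mL). Firefly luciferase signal measured by luminescence after 10 min ONE-Glo development at room temperature.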

Molecule `Cc1cccc2ccnc(N(C(=O)c3ccc(-n4nnc5cccnc54)cc3)[C@H]3CCCNCC3)c12` [Example 228, (S)-4-(3H-[1,2,3]triazolo[4,5-b]pyridin-3-yl)-N-(azepan-4-yl)-N-(8-methylisoquinolin-1-yl)benzamide] has an IC50 greater than 20000 nM.

Same assay, conditions: Homo sapiens; untitled table following Table 8a; HCT-116 Firefly-luciferase reporter cells, 24 h; read-out: pIC50 (converted)

Compared with `Cc1cccc2ccnc(N(C(=O)c3ccc(-n4nnc5ccc(C#N)nc54)cc3F)[C@@H]3CCCNC3)c12` [Example 191, (R)-4-(5-cyano-3H-[1,2,3]triazolo[4,5-b]pyridin-3-yl)-2-fluoro-N-(8-methylisoquinolin-1-yl)-N-(piperidin-3-yl)benzamide], `Cc1cnc(N(C(=O)c2ccc(-n3nnc4cccnc43)cc2F)[C@@H]2CCCNC2)c2c(C)cccc12` [Example 252, (R)-4-(3H-[1,2,3]triazolo[4,5-b]pyridin-3-yl)-N-(4,8-dimethylisoquinolin-1-yl)-2-fluoro-N-(piperidin-3-yl)benzamide] is 130-fold higher in IC50: 10.7 nM for the first, 1410 nM for the second.

Going from `O=C(c1ccc(-n2nnc3cccnc32)cc1F)N(c1nccc2cccc(/C=C/c3cccnc3)c12)[C@@H]1CCCNC1` [Example 163, (R,E)-4-(3H-[1,2,3]triazolo[4,5-b]pyridin-3-yl)-2-fluoro-N-(piperidin-3-yl)-N-(8-(2-(pyridin-3-yl)vinyl)isoquinolin-1-yl)benzamide] to `O=C(c1ccc(-n2nnc3cccnc32)cc1F)N(c1nccc2ccc(-c3cccnc3)cc12)[C@@H]1CCCNC1` [Example 151, (R)-4-(3H-[1,2,3]triazolo[4,5-b]pyridin-3-yl)-2-fluoro-N-(piperidin-3-yl)-N-(7-(pyridin-3-yl)isoquinolin-1-yl)benzamide], the IC50 rises from 537 nM to 1020 nM (1.9-fold).

First: Cc1cccc2ccnc(N(C(=O)N3CC=C(c4noc5cc(F)ccc45)CC3)[C@@H]3CCCNC3)c12 [Example 257, (R)-4-(6-fluorobenzo[d]isoxazol-3-yl)-N-(8-methylisoquinolin-1-yl)-N-(piperidin-3-yl)-3,6-dihydropyridine-1(2H)-carboxamide]
Second: Cc1cccc2ccnc(N(C(=O)c3ccc(-c4n[nH]c5c4CNCC5)cc3F)[C@@H]3CCCNC3)c12 [Example 296, (R)-2-fluoro-N-(8-methylisoquinolin-1-yl)-N-(piperidin-3-yl)-4-(4,5,6,7-tetrahydro-1H-pyrazolo[4,3-c]pyridin-3-yl)benzamide]
The IC50 of the first is lower: 4170 nM for the first, greater than 20000 nM for the second.

`Cc1cccc2ccnc(N(C(=O)c3ccc(-c4cnn(C)c4C(=O)O)cc3)[C@@H]3CCCNC3)c12` [Example 294, 2-methyl-4-[4-[(8-methyl-1-isoquinolyl)-[(3R)-3-piperidyl]carbamoyl]phenyl] pyrazole-3-carboxylic acid] and `Cc1cccc2ccnc(N(C(=O)c3ccc(-c4nnn[nH]4)cc3)[C@H]3CCCNC3)c12` [Example 128, (S)—N-(8-methylisoquinolin-1-yl)-N-(piperidin-3-yl)-4-(1H-tetrazol-5-yl)benzamide] cannot be ordered by IC50: greater than 10000 nM for the first, greater than 10000 nM for the second.

First: Cc1nnn(-c2ccc(C(=O)N(c3nccc4cccc(C)c34)[C@@H]3CCCNC3)cc2)n1 [Example 179, (R)-4-(5-methyl-2H-tetrazol-2-yl)-N-(8-methylisoquinolin-1-yl)-N-(piperidin-3-yl)benzamide]
Second: Cc1cccc2ccnc(N(C(=O)c3ccc(-c4cccnn4)cc3)[C@@H]3CCCNC3)c12 [Example 237, (R)—N-(8-methylisoquinolin-1-yl)-N-(piperidin-3-yl)-4-(pyridazin-3-yl)benzamide]
The IC50 of the first is 8.1-fold lower: 72.4 nM for the first, 589 nM for the second.

First: NC(=O)/C=C/c1ccc2ccnc(N(C(=O)c3ccc(-n4nnc5cccnc54)cc3F)[C@@H]3CCCNC3)c2c1 [Example 149, (R,E)-4-(3H-[1,2,3]triazolo[4,5-b]pyridin-3-yl)-N-(7-(3-amino-3-oxoprop-1-en-1-yl)isoquinolin-1-yl)-2-fluoro-N-(piperidin-3-yl)benzamide]
Second: O=C(c1ccc(-n2nnc3cccnc32)cc1F)N(c1nccc2ccc(Br)cc12)[C@@H]1CCCNC1 [Example 283, (R)-4-(3H-[1,2,3]triazolo[4,5-b]pyridin-3-yl)-N-(7-bromoisoquinolin-1-yl)-2-fluoro-N-(piperidin-3-yl)benzamide]
The IC50 of the first is 3.2-fold higher: 3800 nM for the first, 1200 nM for the second.

Going from `Cc1cccc2ccnc(N(C(=O)c3ccc(N4CC(C)NC4=O)cc3F)[C@@H]3CCCNC3)c12` (stereo partly drawn) [Example 172, 2-fluoro-4-(4-methyl-2-oxoimidazolidin-1-yl)-N-(8-methylisoquinolin-1-yl)-N—((R)-piperidin-3-yl)benzamide] to `Cc1cccc2ccnc(N(C(=O)c3ccc(-n4nccn4)cc3F)[C@@H]3CCCNC3)c12` [Example 194, (R)-2-fluoro-N-(8-methylisoquinolin-1-yl)-N-(piperidin-3-yl)-4-(2H-1,2,3-triazol-2-yl)benzamide], the IC50 falls from 6030 nM to 1200 nM (5-fold).

Going from `O=C(c1ccc(I)cc1F)N(c1nccc2cccc(Cl)c12)[C@@H]1CCCNC1` [Example 141, (R)—N-(8-chloroisoquinolin-1-yl)-2-fluoro-4-iodo-N-(piperidin-3-yl)benzamide] to `Cc1cccc2ccnc(N(C(=O)c3ccc(Nc4ccn(C)n4)cc3F)[C@@H]3CCCNC3)c12` [Example 277, (R)-2-fluoro-4-((1-methyl-1H-pyrazol-3-yl)amino)-N-(8-methylisoquinolin-1-yl)-N-(piperidin-3-yl)benzamide], the IC50 rises from 1910 nM to 4900 nM (2.6-fold).

Compared with `Cc1ccnc(N(C(=O)c2ccc(-n3nnc4cccnc43)cc2F)[C@@H]2CCCNC2)c1/C=C/CCO` [Example 137, (R,E)-4-(3H-[1,2,3]triazolo[4,5-b]pyridin-3-yl)-2-fluoro-N-(3-(4-hydroxybut-1-en-1-yl)-4-methylpyridin-2-yl)-N-(piperidin-3-yl)benzamide], `O=C(c1ccc(-n2nnc3cccnc32)cc1F)N(c1nccc2ccc(CO)cc12)[C@@H]1CCCNC1` [Example 154, (R)-4-(3H-[1,2,3]triazolo[4,5-b]pyridin-3-yl)-2-fluoro-N-(7-(hydroxymethyl)isoquinolin-1-yl)-N-(piperidin-3-yl)benzamide] is 2.8-fold lower in IC50: 2950 nM for the first, 1050 nM for the second.

Compared with `Cc1cccc2ccnc(N(C(=O)c3ccc(-n4nnc(C(C)C)n4)cc3F)[C@@H]3CCCNC3)c12` [Example 285, (R)-2-fluoro-4-(5-isopropyl-2H-tetrazol-2-yl)-N-(8-methylisoquinolin-1-yl)-N-(piperidin-3-yl) benzamide], `Cc1cccc2ccnc(N(C(=O)c3ccc(-n4nnc5cccnc54)cc3F)[C@H]3CNCC(F)(F)C3)c12` [Example 175, (R)-4-(3H-[1,2,3]triazolo[4,5-b]pyridin-3-yl)-N-(5,5-difluoropiperidin-3-yl)-2-fluoro-N-(8-methylisoquinolin-1-yl)benzamide] is 32-fold higher in IC50: 295 nM for the first, 9330 nM for the second.

`O=C(c1ccc(-n2nnc3cccnc32)cc1F)N(c1ncccc1-c1cn[nH]c1)[C@@H]1CCCNC1` [Example 176, (R)—N-(3-(1H-pyrazol-4-yl)pyridin-2-yl)-4-(3H-[1,2,3]triazolo[4,5-b]pyridin-3-yl)-2-fluoro-N-(piperidin-3-yl)benzamide] and `C#Cc1cccnc1N(C(=O)c1ccc(-n2nnc3cccnc32)cc1F)[C@@H]1CCCNC1` [Example 107, (R)-4-(3H-[1,2,3]triazolo[4,5-b]pyridin-3-yl)-N-(3-ethynylpyridin-2-yl)-2-fluoro-N-(piperidin-3-yl)benzamide] are within 1.5-fold of each other in IC50: 933 nM for the first, 977 nM for the second.

`O=C(c1ccc(-n2nnc3cccnc32)cc1F)N(c1nccc2cc(F)ccc12)[C@@H]1CCCNC1` [Example 144, (R)-4-(3H-[1,2,3]triazolo[4,5-b]pyridin-3-yl)-2-fluoro-N-(6-fluoroisoquinolin-1-yl)-N-(piperidin-3-yl)benzamide] and `O=C(c1ccc(-n2nnc3cccnc32)cc1F)N(c1nccc2sc(-c3ccncc3)cc12)[C@@H]1CCCNC1` [Example 161, (R)-4-(3H-[1,2,3]triazolo[4,5-b]pyridin-3-yl)-2-fluoro-N-(piperidin-3-yl)-N-(2-(pyridin-4-yl)thieno[3,2-c]pyridin-4-yl)benzamide] are within 1.5-fold of each other in IC50: 603 nM for the first, 417 nM for the second.

First: Cc1cccc2ccnc(N(C(=O)C3CCN(C=O)CC3)[C@@H]3CCCNC3)c12 [Example 301, (R)-1-formyl-N-(8-methylisoquinolin-1-yl)-N-(piperidin-3-yl) piperidine-4-carboxamide]
Second: Cc1cccc2ccnc(N(C(=O)N3CCC(Nc4ncccn4)CC3)[C@@H]3CCCNC3)c12 [Example 208, (R)—N-(8-methylisoquinolin-1-yl)-N-(piperidin-3-yl)-4-(pyrimidin-2-ylamino)piperidine-1-carboxamide]
The IC50 of the first is higher: greater than 10000 nM for the first, 3550 nM for the second.

Going from `Cc1cccc2ccnc(N(C(=O)c3ccc(-n4nnc5cccnc54)cc3)[C@H]3CCNC3)c12` [Example 231, (S)-4-(3H-[1,2,3]triazolo[4,5-b]pyridin-3-yl)-N-(8-methylisoquinolin-1-yl)-N-(pyrrolidin-3-yl)benzamide] to `O=C(c1ccc(-n2nnc3cccnc32)cc1F)N(c1nccc2scc(Br)c12)[C@@H]1CCCNC1` [Example 122, (R)-4-(3H-[1,2,3]triazolo[4,5-b]pyridin-3-yl)-N-(3-bromothieno[3,2-c]pyridin-4-yl)-2-fluoro-N-(piperidin-3-yl)benzamide], the IC50 falls from greater than 20000 nM to 123 nM.

Compared with `O=C(c1ccc(-c2cccc3cnccc23)cc1F)N(c1cc2ccccc2cn1)[C@@H]1CCCNC1` [Example 291, (R)-2-fluoro-N-(isoquinolin-3-yl)-4-(isoquinolin-5-yl)-N-(piperidin-3-yl)benzamide], `CC1(c2ccno2)CCN(C(=O)N(c2cc3ccccc3cn2)[C@@H]2CCCNC2)CC1` [Example 190, (R)—N-(isoquinolin-3-yl)-4-(isoxazol-5-yl)-4-methyl-N-(piperidin-3-yl)piperidine-1-carboxamide] is 4.7-fold higher in IC50: 1260 nM for the first, 5890 nM for the second.

`Cc1cccc2ccnc(N(C(=O)N3CCCCC3c3nc4ccccc4s3)[C@@H]3CCCNC3)c12` (stereo partly drawn) [Example 259, 2-(benzo[d]thiazol-2-yl)-N-(8-methylisoquinolin-1-yl)-N—((R)-piperidin-3-yl)piperidine-1-carboxamide] showed an IC50 of 8320 nM.
